Results taken from patent publication US5294633A, “Imidazolyl-propenoic acid derivatives” (Bayer Aktiengesellschaft, priority 1991, dated 1994).
Converted amounts (≈) assume the structure as drawn.

System: isolated rabbit aorta (contractions induced by angiotensin II)
Assay: Inhibition of the contraction induced with angiotensin II in isolated rabbit aorta rings
Details: Oryctolagus cuniculus; isolated aorta rings of rabbits in vitro; effect at 3rd = submaximal agonist concentration; read-out: IC50 (g/ml) with respect to contractions induced by AII
Protocol: Rabbits of both sexes are anaesthetized by a blow to the neck and bled out, or alternatively anaesthetized with Nembutal (about 60-80 mg/kg i.v.) and sacrificed by opening the thorax. The thorax aorta is taken out, freed from adhering connective tissue, divided into 1. 5 Mm wide ring segments and these are individually transferred under an initial loading of about 3.5 g to 10 ml organ baths containing 95% O2 /5% CO2 -aerated Krebs-Henseleit nutrient solution thermostated at 37° C. and of the following composition: 119 mmol/l NaCl; 2.5 mmol/l CaCl2 ×2H2 O; 1.2 mmol/l KH2 PO4; 10 mmol/l glucose; 4.8 mmol/l KCl; 1.4 mmol/l MgSO4 ×7 H2 O and 25 mmol/l NaHCO3.
The contractions are detected isometrically by Statham UC2 cells by means of a bridge amplifier (ifd Mulheim or DSM Aalen) and digitized and evaluated by means of an A/D converter (System 570, Keithley, Munich). The agonist dose-response curves (DRC) are carried out hourly. With each DRC, 3 or 4 individual concentrations are applied to the baths at 4 min intervals. […]
The height of, in the normal case, the 3rd DRC is used as a reference quantity for the assessment of the test substance to be investigated in further passages, which test substance is applied to the baths in increasing dose in each case at the start of the incubation time in the following DRCs. […]

IC50	Compound
0.021 µg/mL (≈ 0.0454 µM)	CCCCc1nc(Cl)c(/C=C/C(=O)O)n1Cc1ccc(-c2ccccc2-c2nnn[nH]2)cc1 [Example 2, (E)-3-[2-n-Butyl-4-chloro-1-{(2'-(tetrazol-5-yl)biphenyl-4-yl)methyl}-1H-imidazol-5-yl]-2-propenoic acid]
0.025 µg/mL (≈ 0.0509 µM)	CCCCc1nc(Cl)c(/C=C/C(=O)OCC)n1Cc1ccc(-c2ccccc2-c2nnn[nH]2)cc1 [Example 1, Ethyl (E)-3-[2-n-butyl-4-chloro-1-{(2'-(tetrazol-5-yl)biphenyl-4-yl)methyl}-1H-imidazol-5-yl]-2-propenoate]
